Source: ChEMBL document CHEMBL5532655, “Discovery of (R)-4-(8-methoxy-2-methyl-1-(1-phenylethy)-1H-imidazo[4,5-c]quinnolin-7-yl)-3,5-dimethylisoxazole as a potent and selective BET inhibitor for treatment of acute myeloid leukemia (AML) guided by FEP calculation” (Eur J Med Chem, 2024)

Columns and labels:
Assay in all cases: cells
[1] = system: MM1.S; conditions: Homo sapiens, 48 h
Description: Antiproliferative activity against human MM1.S cells assessed as inhibition of cell growth incubated for 48 hrs by MTT assay

[2] = system: MV4-11; conditions: Homo sapiens, MV4-11, 48 h
Description: Antiproliferative activity against human MV4-11 cells assessed as inhibition of cell growth incubated for 48 hrs by MTT assay

[3] = system: Jurkat; conditions: Homo sapiens, 48 h
Description: Antiproliferative activity against human Jurkat cells assessed as inhibition of cell growth incubated for 48 hrs by MTT assay

[4] = system: MOLM-13; conditions: Homo sapiens, MOLM-13, 48 h
Description: Antiproliferative activity against human MOLM-13 cells assessed as inhibition of cell growth incubated for 48 hrs by MTT assay

| SMILES | IC50 [1] | IC50 [2] | IC50 [3] | IC50 [4] |
| --- | --- | --- | --- | --- |
| COc1cc2c(cc1-c1ccc(C(F)(F)F)cc1)ncc1nc(C)n([C@@H](C)c3ccccc3)c12 | 11.9 µM | 5 µM | 16.4 µM | 0.91 µM |
| COc1ccc(-n2c(C)nc3cnc4cc(-c5cnn(C)c5)c(OC)cc4c32)cc1 | 3.23 µM | 9.71 µM | > 20 µM | > 20 µM |
| COc1cc2c(cc1-c1ccc(C(C)=O)cc1)ncc1nc(C)n([C@@H](C)c3ccccc3)c12 | 11.6 µM | 12.5 µM | 12.9 µM | 4.73 µM |
| COc1ccc(-n2c(C)nc3cnc4cc(-c5ccc6nc[nH]c6c5)c(OC)cc4c32)cc1 | 5.8 µM | 5.33 µM | 17.2 µM | > 20 µM |
| COc1ccc(-c2cc3ncc4nc(C)n([C@@H](C)c5ccccc5)c4c3cc2OC)cc1CO | 13.5 µM | 18 µM | > 20 µM | > 20 µM |
| COc1cc2c(cc1-c1ccc(C#N)cc1)ncc1nc(C)n([C@@H](C)c3ccccc3)c12 | 9.09 µM | 5 µM | 4.53 µM | 10.1 µM |
| COc1ccc(-n2c(C)nc3cnc4cc(-c5ccc(C)cc5)c(OC)cc4c32)cc1 | 6.34 µM | > 20 µM | > 20 µM | > 20 µM |
| COc1cc2c(cc1-c1c(C)noc1C)ncc1nc(C)n([C@H](C)c3ccccn3)c12 | 3.55 µM | 1.29 µM | 16.1 µM | 6.4 µM |
| COc1ccc(-n2c(C)nc3cnc4cc(-c5cc(C)cc(C)c5)c(OC)cc4c32)cc1 | 12 µM | > 20 µM | > 20 µM | > 20 µM |
| COc1cc2c(cc1-c1ccc(N)cc1)ncc1nc(C)n([C@@H](C)c3ccccc3)c12 | 4.04 µM | 3.25 µM | 11.1 µM | 7.16 µM |
| COc1cc2c(cc1-c1cnn(C)c1)ncc1nc(C)n([C@H](C)c3ccccn3)c12 | 5.84 µM | 2.6 µM | 9.87 µM | 3.55 µM |
| COc1cc2c(cc1-c1ccc(C)cc1)ncc1nc(C)n([C@@H](C)c3ccccc3)c12 | 6.02 µM | 8.3 µM | > 20 µM | 4.99 µM |
| COc1ccc(-c2cc3ncc4nc(C)n(-c5ccc(OC)cc5)c4c3cc2OC)cc1 | 12.5 µM | 4.41 µM | > 20 µM | 15.6 µM |
| COc1cc2c(cc1-c1c(C)noc1C)ncc1nc(C)n([C@@H](C)c3ccccc3)c12 | 11.2 µM | 2.02 µM | 16.6 µM | 12.5 µM |
| COc1cc2c(cc1-c1cnn(C)c1)ncc1nc(C)n([C@H](C)c3ccccc3)c12 | 6.9 µM | 6.83 µM | > 20 µM | > 20 µM |
| COc1cc2c(cc1-c1ccc(N)nc1)ncc1nc(C)n([C@@H](C)c3ccccc3)c12 | 5.69 µM | 1.4 µM | 15.2 µM | 4.74 µM |
| COc1ccc(-n2c(C)nc3cnc4cc(-c5cnccc5OC)c(OC)cc4c32)cc1 | 5.67 µM | > 20 µM | > 20 µM | > 20 µM |
| COc1ccc(-n2c(C)nc3cnc4cc(-c5c(C)n[nH]c5C)c(OC)cc4c32)cc1 | 3.12 µM | 10.6 µM | > 20 µM | > 20 µM |
| COc1ccc(-n2c(C)nc3cnc4cc(-c5cnc(N)nc5)c(OC)cc4c32)cc1 | > 20 µM | > 20 µM | > 20 µM | > 20 µM |
| COc1ccc(-n2c(C)nc3cnc4cc(-c5c(C)noc5C)c(OC)cc4c32)cc1 | 9.3 µM | 1.22 µM | > 20 µM | 11.6 µM |
| COc1cc2c(cc1-c1cnc(N)nc1)ncc1nc(C)n([C@@H](C)c3ccccc3)c12 | 9.23 µM | > 20 µM | > 20 µM | > 20 µM |
| COc1cc2c(cc1-c1ccc(F)cc1)ncc1nc(C)n([C@@H](C)c3ccccc3)c12 | 9.48 µM | 2.85 µM | > 20 µM | 2.49 µM |

Results, then the compound that gave them:

| IC50 [1] | IC50 [2] | IC50 [3] | IC50 [4] | SMILES |
| --- | --- | --- | --- | --- |
| 9.8 µM | 9.93 µM | 15.1 µM | > 20 µM | COc1ccc(-n2c(C)nc3cnc4cc(-c5ccc6[nH]ccc6c5)c(OC)cc4c32)cc1 |
| > 20 µM | 11 µM | > 20 µM | > 20 µM | COc1ccc(-n2c(C)nc3cnc4cc(-c5ccc(F)cc5)c(OC)cc4c32)cc1 |
| 7.9 µM | 5.39 µM | > 20 µM | > 20 µM | COc1ccc(-n2c(C)nc3cnc4cc(-c5ccc(C#N)cc5)c(OC)cc4c32)cc1 |
| 12.4 µM | 11.1 µM | > 20 µM | > 20 µM | COc1ccc(-n2c(C)nc3cnc4cc(-c5ccc(C(C)=O)cc5)c(OC)cc4c32)cc1 |
| 10.1 µM | 6.13 µM | 15.6 µM | 6.85 µM | COc1cc2c(cc1-c1cnc3[nH]ccc3c1)ncc1nc(C)n(C(C)c3ccccc3)c12 (stereo not given) |
| 4.84 µM | 13.1 µM | 5.46 µM | 4.12 µM | COc1ccc(-c2cc3ncc4nc(C)n([C@@H](C)c5ccccc5)c4c3cc2OC)cc1 |
| > 20 µM | 5.64 µM | > 20 µM | > 20 µM | COc1ccc(-n2c(C)nc3cnc4cc(-c5ccc(C(F)(F)F)cc5)c(OC)cc4c32)cc1 |
| 8.69 µM | 10.4 µM | > 20 µM | 19.1 µM | COc1cc2c(cc1-c1ccc3nc[nH]c3c1)ncc1nc(C)n([C@@H](C)c3ccccc3)c12 |
| 1.85 µM | 1.02 µM | > 20 µM | 5.15 µM | COc1cc2c(cc1-c1c(C)noc1C)ncc1nc(C)n(C3CCOCC3)c12 |
| 5.92 µM | 6.24 µM | > 20 µM | > 20 µM | COc1cc2c(cc1-c1cc(C)cc(C)c1)ncc1nc(C)n([C@@H](C)c3ccccc3)c12 |
| 9.8 µM | > 20 µM | > 20 µM | > 20 µM | COc1ccc(-n2c(C)nc3cnc4cc(-c5ccc(N)cc5)c(OC)cc4c32)cc1 |
| 13.7 µM | 2.21 µM | > 20 µM | 9.7 µM | COc1cc2c(cc1-c1ccc3[nH]ccc3c1)ncc1nc(C)n([C@@H](C)c3ccccc3)c12 |
| 5.79 µM | 2.25 µM | > 20 µM | 8.42 µM | COc1cc2c(cc1-c1ccc(O)cc1)ncc1nc(C)n([C@@H](C)c3ccccc3)c12 |
| 2.34 µM | 4.63 µM | > 20 µM | 12.8 µM | COc1cc2c(cc1-c1c(C)noc1C)ncc1nc(C)n(-c3ccc(C#N)cc3)c12 |
| 8.92 µM | 0.53 µM | 16.5 µM | 13.1 µM | COc1cc2c(cc1-c1c(C)n[nH]c1C)ncc1nc(C)n([C@@H](C)c3ccccc3)c12 |
| 2.44 µM | 4.96 µM | 15 µM | 18.3 µM | COc1ccc(-n2c(C)nc3cnc4cc(-c5ccc(O)cc5)c(OC)cc4c32)cc1 |
| 11 µM | 17.9 µM | > 20 µM | > 20 µM | COc1ccc(-n2c(C)nc3cnc4cc(-c5ccc(OC)c(CO)c5)c(OC)cc4c32)cc1 |
| 7.06 µM | 1.05 µM | > 20 µM | 10.1 µM | COc1cc2c(cc1-c1c(C)noc1C)ncc1nc(C)n(-c3ccc(CC#N)cc3)c12 |
| 11.5 µM | 0.62 µM | 2.14 µM | > 20 µM | COc1cc2c(cc1-c1cnn(C)c1)ncc1nc(C)n([C@@H](C)c3ccccc3)c12 |
| > 20 µM | 10.9 µM | > 20 µM | 0.44 µM | COc1cc2c(cc1-c1c(C)n[nH]c1C)ncc1nc(C)n([C@H](C)c3ccccn3)c12 |
| 13 µM | 18.6 µM | 4.71 µM | > 20 µM | COc1ccc(-n2c(C)nc3cnc4cc(-c5cnc6[nH]ccc6c5)c(OC)cc4c32)cc1 |
| 7.4 µM | > 20 µM | > 20 µM | 10.9 µM | COc1ccncc1-c1cc2ncc3nc(C)n([C@@H](C)c4ccccc4)c3c2cc1OC |
| 5.78 µM | 9.21 µM | 11.2 µM | 11.3 µM | COc1ccc(-n2c(C)nc3cnc4cc(-c5ccc(N)nc5)c(OC)cc4c32)cc1 |
